Measurements from ChEMBL document CHEMBL5335818, “A MassQL-Integrated Molecular Networking Approach for the Discovery and Substructure Annotation of Bioactive Cyclic Peptides” (J Nat Prod, 2024).
Active and inactive are the calls of the source. The calls are words filed in the database; no cut-off is given here.

How the values were obtained:
[1] = biological target: Vasopressin V1a receptor (Homo sapiens) (UniProt P37288); experiment: Antagonist activity at V1A receptor (unknown origin) assessed as reduction in AVP-induced V1A receptor signaling; format: functional
[2] = biological target: Vasopressin V1a receptor (Homo sapiens) (UniProt P37288); experiment: Activation of endogenous V1A receptor signaling in HEK293 cells at 0.1 to 31.6 uM incubated for 16 mins by label-free DMR assay; format: functional, cell-based; conditions: dose 0.1-31.6 µM
[3] = biological target: Vasopressin V1a receptor (Homo sapiens) (UniProt P37288); experiment: Activation of V1A receptor (unknown origin) mediated signaling transfected in HEK293 cells at 0.1 to 31.6 uM incubated for 16 mins by label-free DMR assay; format: functional, cell-based; conditions: dose 0.1-31.6 µM
[4] = biological target: Vasopressin V1a receptor (Homo sapiens) (UniProt P37288); experiment: Antagonist activity at V1A receptor (unknown origin) transfected in HEK293 cells assessed as inhibition of AVP-induced cell activation at 1 to 31.6 uM incubated for 16 mins by label-free DMR assay; format: functional, cell-based; conditions: filed as antagonist, dose 1-31.6 µM
[5] = biological target: Vasopressin V1a receptor (Homo sapiens) (UniProt P37288); experiment: Antagonist activity at V1A receptor (unknown origin) transfected in HEK293 cells assessed as inhibition of AVP-induced cell activation at 31.6 uM incubated for 16 mins by label-free DMR assay relative to control; format: functional, cell-based
[6] = biological target: Muscarinic acetylcholine receptor M3 (Homo sapiens) (UniProt P20309); experiment: Antagonist activity at endogenous muscarinic M3 receptor in HEK293 cells assessed as inhibition of carbachol-induced cell activation at 1 to 31.6 uM incubated for 16 mins by label-free DMR assay; format: functional, cell-based; conditions: dose 1-31.6 µM
Chain of Muscarinic acetylcholine receptor M3 (Homo sapiens) (P20309 whole entry, looked up): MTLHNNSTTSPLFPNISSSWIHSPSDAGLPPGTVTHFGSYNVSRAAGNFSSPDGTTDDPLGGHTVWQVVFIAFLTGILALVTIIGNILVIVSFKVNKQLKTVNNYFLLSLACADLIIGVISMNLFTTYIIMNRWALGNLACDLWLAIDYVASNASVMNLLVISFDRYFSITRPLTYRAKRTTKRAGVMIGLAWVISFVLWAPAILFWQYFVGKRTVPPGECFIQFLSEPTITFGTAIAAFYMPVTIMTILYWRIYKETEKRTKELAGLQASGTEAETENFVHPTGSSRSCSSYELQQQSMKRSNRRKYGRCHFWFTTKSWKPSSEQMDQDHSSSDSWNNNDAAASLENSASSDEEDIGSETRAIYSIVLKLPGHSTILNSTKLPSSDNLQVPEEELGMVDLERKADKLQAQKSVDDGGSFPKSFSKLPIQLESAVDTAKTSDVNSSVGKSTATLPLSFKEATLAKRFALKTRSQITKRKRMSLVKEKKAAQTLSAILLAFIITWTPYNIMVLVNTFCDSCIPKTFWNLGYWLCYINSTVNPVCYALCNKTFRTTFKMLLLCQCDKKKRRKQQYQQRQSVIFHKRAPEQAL

Chain of Vasopressin V1a receptor (Homo sapiens) (P37288 whole entry, looked up): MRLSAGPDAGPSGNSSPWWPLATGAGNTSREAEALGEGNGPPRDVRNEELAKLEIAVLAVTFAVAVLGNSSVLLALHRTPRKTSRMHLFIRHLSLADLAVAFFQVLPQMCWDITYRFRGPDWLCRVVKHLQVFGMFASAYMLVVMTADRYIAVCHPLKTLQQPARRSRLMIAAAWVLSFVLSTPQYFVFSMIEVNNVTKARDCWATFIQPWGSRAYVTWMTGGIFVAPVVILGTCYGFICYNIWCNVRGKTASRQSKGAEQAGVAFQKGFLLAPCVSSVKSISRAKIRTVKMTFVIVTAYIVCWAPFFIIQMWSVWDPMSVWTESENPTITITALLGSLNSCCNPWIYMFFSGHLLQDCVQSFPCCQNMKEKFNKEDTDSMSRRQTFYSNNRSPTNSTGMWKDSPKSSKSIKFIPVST

Row | Activity [1] | Activity ([1]; filed as antagonist) | Activity [2] | Activity [3] | Activity [4] | inhibition [5] | Activity [6] | Compound
1 | inactive | – | – | – | – | – | – | CC(C)C[C@@H]1NC(=O)[C@H](Cc2ccoc2)N(C)C(=O)[C@H](C(C)C)NC(=O)[C@@H]2CCCN2C1=O
2 | inactive | – | – | – | – | – | – | CC(C)C[C@@H]1NC(=O)[C@H](Cc2ccoc2)N(C)C(=O)[C@H](C(C)C)NC(=O)[C@H](Cc2ccoc2)N(C)C1=O
3 | – | Active | inactive | inactive | Active | 22% | inactive | CC(C)[C@@H]1NC(=O)[C@@H]2CCCN2C(=O)[C@H](Cc2ccoc2)NC(=O)[C@H](Cc2ccoc2)N(C)C1=O
